Test results reported in patent publication US20100256041A1, “Conjugate Molecule Compounds With Enhanced Cell Uptake Activity” (priority 2004, published 2010).
Where “and” joins values, the source holds several entries; their conditions need not be identical. Identical values can stand only once. Like-named read-outs stand apart in the source and are kept apart here. Square brackets hold non-standard residues; d marks the D form.

Key:
[1] = tested on: SiHa (human cervix squamous carcinoma cell line); assay: MTT cell survival assay, 96 h treatment (Example 2, oxaliplatin conjugates); format: cell-based; conditions: SiHa cells, Example 2, triplicate
Description: (§1) Effects of a treatment with increasing concentrations of a conjugate molecule of the invention (D-Tat-oxaliplatin) on the survival of MCF-7 (human breast adenocarcinoma cell line) and SiHa (human cervix squamous carcinoma cell line) was determined. The effects of D-Tat-oxaliplatin was compared to the conjugate L-Tat-oxaliplatin and to two unconjugated anti-cancer drugs (Oxaliplatin and Cisplatin). Cells of each cell line (10′000 cells per well) were plated into 96 well plates (200 μl total volume of MEM supplemented with 10% FBS, 1% L-glutamine, 1% Na-pyruvate, 1% non-essential amino acids for MCF-7 and of MEM/Earle's supplemented with 10% FBS, 1% Na-pyruvate, 1% non-essential amino acids for SiHa cells). 6 to10 different concentrations for each test substance were tested. The control cells are non-treated. Cells were incubated at 37° C. for 24 h before treatment with the test substance. Each experiment was carried in triplicate. Cell incubation after treatment was performed for 96 hours at 37° C. The effects of the test molecules on the survival of these cell lines (in vitro cytotoxic activity) was measured by the MTT assay. 20 μl of a 5 mg/ml 0.22 μm filtered Thiazolyl Blue Tetrazolium Bromide solution (MTT, Sigma, Ref. No. 88415) in Phosphate Buffered saline (PBS, CHUV) were added to each well and the plate was incubated for 4 hours at 37° C. The supernatant was removed and formazan crystals were dissolved with DMSO (200 μl per well). Absorbancy (OD) was measured in a microplate reader at 595 nm (Expert Plus Reader, Asys Hitech). The IC50 (concentration of the drug inhibiting 50% of the cell growth) for the test substances was calculated using Prism software.

[2] = tested on: MCF-7 (human breast adenocarcinoma cell line); assay: as above; format: cell-based; conditions: MCF-7 cells, Example 2, triplicate
Description: as §1

MRC-5 (human fibroblast) = assay: MTT cell survival assay, 96 h treatment (Example 1); format: cell-based; conditions: MRC-5 fibroblast cells
Description: Effects of a treatment with increasing concentrations of a conjugate molecule of the invention (Cisplatin-D-TAT) and an unconjugated anti-cancer drug (Cisplatin) on the survival of IGROV-1 (ovary), IGROV-1/CDDP (ovary, cisplatin-resistant cell line), MCF-7 (breast), and MRC-5 (human fibroblast) (three human tumor cell lines and one human fibroblast cell line) was determined. Cells of each cell line were plated out (200 μl final volume of RPMI 1640 supplemeted with 10% FBS) in 96 well plates (5 different concentrations for each test substance, one control experiment) 5,000 to 40,000 cells per well (depending on the doubling time for each cell line) were incubated at 37° C. for 24 h before treatment with the test substances. Each experiment was carried 4×. Cell incubation after treatment was performed for 96 h at 37° C. The effects of Cisplatin-D-TAT and Cisplatin on the survival of these cell lines (in vitro cytotoxic activity) were measured by using an MTT assay. 20 μl of a 5 mg/ml solution 0.22 μl filtered tetrazolium reagent (MTT, Ref. M2003, Sigma) in Phosphate Buffered Saline (PBS, Ref BE17-517Q, Cambrex) were aded in each well. […] Absorbancy (OD) was determined in each well on a single wavelength spectrophotometer plate reader at 570 nm (Multiskan, Labsystem, Helsinki, Finland) Data were collected with Genesis software (Labsystem, Helsinki, Finland). […]

[3] = tested on: SiHa (humon cervix squamous carcinoma cell line); assay: cells; format: cell-based, human
Description: (§2) Effects of a treatment with increasing concentrations of a conjugate molecule of the invention (D-Tat-chlorambucil) on the survival of MCF-7 (human breast adenocarcinoma cell line) and SiHa (humon cervix squamous carcinoma cell line) was determined. The effects of D-Tat-chlorambucil was compared to the conjugate L-Tat-chlorambucil and to two unconjugated anti-cancer drugs (Chlorambucil and Cisplatin). Cells of each cell line (10′000 cells per well) were plated into 96 well plates (200 μtotal volume of MEM supplemented with 10% FBS, 1% L-glutamine, 1% Na-pyruvate, 1% non-essential amino acids for MCF-7 and of MEM/Earle's supplemented with 10% FBS, 1% Na-pyruvate, 1% non-essential amino acids for SiHa cells). 6 to 10 different concentrations for each test substance were tested. The control cells are non-treated. Cells were incubated at 37° C. for 24 h before treatment with the test substance. Each experiment was carried in triplicate. Cell incubation after treatment was performed for 96 hours at 37° C. The effects of the test molecules on the survival of these cell lines (in vitro cytotoxic activity) was measured by the MTT assay. 20 μl of a 5 mg/ml 0.22 μm filtered Thiazolyl Blue Tetrazolium Bromide solution (MTT, Sigma, Ref. No. 88415) in Phosphate Buffered saline (PBS, CHUV) were added to each well and the plate was incubated for 4 hours at 37° C. The supernatant was removed and formazan crystals were dissolved with DMSO (200 μl per well). Absorbancy (OD) was measured in a microplate reader at 595 nm
(§3) (Expert Plus Reader, Asys Hitech). The IC50 (concentration of the drug inhibiting 50% of the cell growth) for the test substances was calculated using Prism software.

MCF-7 (breast) = assay: MTT cell survival assay, 96 h treatment (Example 1); format: cell-based, human; conditions: MCF-7 cells
Description: (§4) Effects of a treatment with increasing concentrations of a conjugate molecule of the invention (Cisplatin-D-TAT) and an unconjugated anti-cancer drug (Cisplatin) on the survival of IGROV-1 (ovary), IGROV-1/CDDP (ovary, cisplatin-resistant cell line), MCF-7 (breast), and MRC-5 (human fibroblast) (three human tumor cell lines and one human fibroblast cell line) was determined. Cells of each cell line were plated out (200 μl final volume of RPMI 1640 supplemeted with 10% FBS) in 96 well plates (5 different concentrations for each test substance, one control experiment) 5,000 to 40,000 cells per well (depending on the doubling time for each cell line) were incubated at 37° C. for 24 h before treatment with the test substances. Each experiment was carried 4×. Cell incubation after treatment was performed for 96 h at 37° C. The effects of Cisplatin-D-TAT and Cisplatin on the survival of these cell lines (in vitro cytotoxic activity) were measured by using an MTT assay. 20 μl of a 5 mg/ml solution 0.22 μl filtered tetrazolium reagent (MTT, Ref. M2003, Sigma) in Phosphate Buffered Saline (PBS, Ref BE17-517Q, Cambrex) were aded in each well. Culture plates were incubated for 4 h at 37° C. The resulting supernatant was removed and formazan crystals were dissolved with 200 μl of DMSO per well. Absorbancy (OD) was determined in each well on a single wavelength spectrophotometer plate reader at 570 nm (Multiskan, Labsystem, Helsinki, Finland) Data were collected with Genesis software (Labsystem, Helsinki, Finland). IC50 (concentration of the drug inhibiting 50% of the cell growth) for the test substances was calculated for each cell line after plotting. Control cells were treated with vehicle.

IGROV-1 (ovary) = assay: as above; format: cell-based, human; conditions: IGROV-1 cells, mean of four measurements
Description: as §4

[4] = tested on: IGROV-1/CDDP (ovary, cisplatin-resistant cell line); assay: as above; format: cell-based, human; conditions: for IC50: IGROV-1/CDDP cisplatin-resistant cells, MTT, 96 h, mean of four measurements; for resistance index of IGROV-1/CDDP compared to parental IGROV-1 cell line: approximate; for Resistance Index of IGROV-1/CDDP versus IGROV-1 cell line: ratio of IC50 IGROV-1/CDDP to IGROV-1
Description: as §4

[5] = tested on: MCF-7 (human breast adenocarcinoma cell line); assay: cells; format: cell-based
Description: as §2, §3

[6] = Octanol/water partition (shake-flask, HPLC at 214 nm), water solubility; conditions: 1 mM, 24 hours equilibration at room temperature, FIG. 10

Molecule	IC50 [1]	IC50 [2]	IC50 (MRC-5 (human fibroblast))	IC50 (MCF-7 (breast))	IC50 (IGROV-1 (ovary))	IC50 [4]	resistance index of IGROV-1/CDDP compared to parental IGROV-1 cell line [4]	Resistance Index of IGROV-1/CDDP versus IGROV-1 cell line [4]	water solubility (compound partitioned in water, octanol/water) [6]	further results
N.N.[Cl][Pt][Cl] [Cisplatin, cis-diamindichloroplatin (II)]	11.1 µM	9.1 µM	4.88 µM	2.68 µM	1.2 µM	52.3 µM	approximately 40 fold	43.6	–	IC50 ([3]; SiHa cells, MTT, 96 h, Example 3, triplicate, read-out: IC50): 7 µM and 7.03 µM; IC50 ([5]; MCF-7 cells, MTT, 96 h, Example 3, triplicate, read-out: IC50): 7 µM and 7.96 µM
O=C(O)CCCc1ccc(N(CCCl)CCCl)cc1 [chlorambucil]	–	–	–	–	–	–	–	–	very low water solubility	IC50 ([3]; Homo sapiens, SiHa): > 1000 µM; IC50 ([3]; Homo sapiens, SiHa, 96 h): > 1000 µM; IC50 ([5]; Homo sapiens, MCF7): > 1000 µM; IC50 ([5]; Homo sapiens, MCF7, 96 h): > 1000 µM
COc1cccc2c1C(=O)c1c(O)c3c(c(O)c1C2=O)C[C@@](O)(C(=O)CO)C[C@@H]3O[C@H]1C[C@H](N)[C@H](O)[C@H](C)O1 [doxorubicine]	–	–	–	–	–	–	–	–	almost perfectly soluble in water	–
O=C(O)C(=O)O.[NH-][C@@H]1CCCC[C@H]1[NH-].[Pt+2] [oxaliplatin]	11.1 µM	1.5 µM	–	–	–	–	–	–	–	–
CC(C)(C)NC(=O)[C@@H]1C[C@@H]2CCCC[C@@H]2CN1C[C@@H](O)[C@H](Cc1ccccc1)NC(=O)[C@H](CC(N)=O)NC(=O)c1ccc2ccccc2n1 [saquinavir]	–	–	–	–	–	–	–	–	only partially soluble in water	–
Cisplatin-D-TAT (H-[dM]GG[dR][dR][dR][dQ][dR][dR][dK][dK][dR]-NH2; also: cisplatin conjugate)	–	–	20.6 µM	4.89 µM	18.4 µM	35.3 µM	approximately two	1.9	–	–
